Like-named read-outs stand apart in the source and are kept apart here.

Holding throughout (format): cell-based
In experiment [1] the test system is Hep3B cells (hepatocellular carcinoma cell line). Description: In vitro MTS cell viability assay (NCI-60 methodology), Hep3B. The note with it: Homo sapiens, 48 h, 2 days drug incubation, 50% reduction vs time zero, read-out: Hep3B LC50. Summed up: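 Following NCI-60 method, MTS viability of Hep3B measured 24 h after plating (time zero) and after a further 2-day exposure to five concentrations (2-fold series). LC50 defined where [(Ti−Tz)/Tz]×100 = −50.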

The test system of experiment [2] is NCI-H460 (human lung cancer cell line). Nature of the experiment: In vitro MTS cell viability assay (NCI-60 methodology), NCI-H460. Particulars: NCI-H460 cells, read-out: NCI-H460 LC50. The protocol:
(§1) The cell viability measurement is based on the NCI-60 screening methodology (Nat. Rev. Cancer 6, 813-823, 2006). Briefly, cells are inoculated into 96-well plates at the optimal plating density. After 24 h, one of the two plates for Hep3B cell line is processed to determine a time zero cell viability (Tz) by MTS assay (Promega). Compounds are added over a 2-fold serial dilution to provide a total five drug concentrations plus DMSO control. Plates are incubated for a further 2 days, then measured cell viability by MTS assay [control growth (C) and test growth in the presence of drug at the five concentration levels (Ti)]. The LC50 is calculated from [(Ti−Tz)/Tz]×100=−50, which is the drug concentration resulting in a 50% reduction at the end of the drug treatment as compared to that at the beginning.
(§2) The compounds prepared in Tables 1-10 were tested in three in vitro assays, and the results are shown in Tables 1-10 for Hep3B and Table 11 for SW480 and NCI-H460 shown below. Herein, Hep3B refers to hepatocellular carcinoma cell line, SW480 refers to colon adenocarcinoma cell line, and NCI-H460 refers to human lung cancer cell line.
(§3) Shown in Tables 11 are in vitro activities of exemplary compounds of formula (I).

Experiment [3] has as its system SW480 (colon adenocarcinoma cell line). Nature of the experiment: In vitro MTS cell viability assay (NCI-60 methodology), SW480. Particulars: Homo sapiens, SW480 cells, read-out: SW480 LC50. As for the experimental part:
as §1, §2, §3
A general note: Tetrazolium dyes change colour on reduction, which living cells bring about.

In general, LC50 refers to the concentration that kills 50% of the test population. Regarding `COc1ccc(-c2nc(NC(=O)c3ccc([N+](=O)[O-])s3)c3cnn(-c4ccccc4)c3n2)cn1` [Compound 5-35, N-(6-(6-methoxypyridin-3-yl)-1-phenyl-1H-pyrazolo[3,4-d]pyrimidin-4-yl)-5-nitrothiophene-2-carboxamide], the LC50 in experiment [1] (Table 5, MTS) amounted to 180 nM. The values for the CC50 in experiment [2] and in experiment [3] were 650 nM and 1110 nM, respectively.
For the molecule `O=C(Nc1nc(-c2cccc(F)c2)nc2c1cnn2-c1ccc(F)cc1)c1ccc([N+](=O)[O-])s1` [Compound 6-114, N-(6-(3-fluorophenyl)-1-(4-fluorophenyl)-1H-pyrazolo[3,4-d]pyrimidin-4-yl)-5-nitrothiophene-2-carboxamide], the LC50 in experiment [1] (Table 6, MTS) is 200 nM. Further, the results for the CC50 in experiment [2] and in experiment [3] were 350 nM and 840 nM, respectively.
For `O=C(Nc1nc(-c2cccc(Cl)c2)nc2c1cnn2-c1ccc(F)cc1)c1ccc([N+](=O)[O-])s1` [Compound 6-117, N-(6-(3-chlorophenyl)-1-(4-fluorophenyl)-1H-pyrazolo[3,4-d]pyrimidin-4-yl)-5-nitrothiophene-2-carboxamide], the LC50 in experiment [1] (Table 6, MTS) is 150 nM. In addition, the CC50 in experiment [2] is 600 nM; in experiment [3], 910 nM.
For `O=C(Nc1nc(-c2ccc(F)c(F)c2)nc2c1cnn2-c1ccc(F)cc1)c1ccc([N+](=O)[O-])s1` [Compound 6-125, N-(6-(3,4-difluorophenyl)-1-(4-fluorophenyl)-1H-pyrazolo[3,4-d]pyrimidin-4-yl)-5-nitrothiophen-2-carboxamide], in that order: 100 nM, 350 nM and 2280 nM.
Take `Cc1ccc(-n2ncc3c(NC(=O)c4ccc([N+](=O)[O-])s4)nc(-c4ccc(F)cc4F)nc32)cc1` [Compound 6-11]: the LC50 in experiment [1] (Table 6, MTS) is 280 nM. In addition, the CC50 in experiment [2] turned out to be 330 nM; in experiment [3], 670 nM.
Regarding `O=C(Nc1nc(-c2ccc(Cl)c(F)c2)nc2c1cnn2-c1ccc(F)cc1)c1ccc([N+](=O)[O-])s1` [Compound 6-127], the LC50 in experiment [1] (Table 6, MTS) was determined as 150 nM. Further, the CC50 is 450 nM in experiment [2] and 1060 nM in experiment [3].
For `COc1ccc(-n2ncc3c(NC(=O)c4ccc([N+](=O)[O-])s4)nc(-c4ccc(F)nc4)nc32)cc1` [Compound 6-19, N-(6-(6-fluoropyridin-3-yl)-1-(4-methoxyphenyl)-1H-pyrazolo[3,4-d]pyrimidin-4-yl)-5-nitrothiophene-2-carboxamide], in that order: 60 nM, 220 nM and 450 nM.
As to `O=C(Nc1nc(-c2ccc(F)cc2F)nc2c1cnn2-c1ccccc1)c1ccc([N+](=O)[O-])s1` [Compound 5-45, N-(6-(2,4-difluorophenyl)-1-phenyl-1H-pyrazolo[3,4-d]pyrimidin-4-yl)-5-nitrothiophene-2-carboxamide], in experiment [1] (Table 5, MTS), the LC50 is 440 nM. In addition, the CC50 in experiment [2] came to 2180 nM; in experiment [3] it was 1110 nM.
`O=C(Nc1nc(-c2ccc(Cl)nc2)nc2c1cnn2-c1ccc(F)cc1)c1ccc([N+](=O)[O-])s1` [Compound 6-119, N-(6-(6-chloropyridin-3-yl)-1-(4-fluorophenyl)-1H-pyrazolo[3,4-d]pyrimidin-4-yl)-5-nitrothiophene-2-carboxamide]: in experiment [1] (Table 6, MTS), the LC50 was found to be 80 nM. Besides, the CC50 in experiment [2] was determined as 530 nM; in experiment [3] it was 690 nM.
For `COC(=O)[C@@H]1CCCN1c1nc(NC(=O)c2ccc([N+](=O)[O-])s2)c2cnn(-c3ccc(C(C)(C)C)cc3)c2n1` [Compound 6-69, methyl(1-(4-(tert-butyl)phenyl)4-(5-nitrothiophene-2-carboxamido)-1H-pyrazolo[3,4-d]pyrimidin-6-yl)-L-prolinate], in that order: 440 nM, 2760 nM and 890 nM.
Consider `Cc1csc2c(NC(=O)c3ccc([N+](=O)[O-])s3)nc(-c3ccc(C(F)(F)F)cc3)nc12` [Compound 4-2, N-(7-methyl-2-(4-(trifluoromethyl)phenyl)thieno[3,2-d]pyrimidin-4-yl)-5-nitrothiophene-2-carboxamide], for which, in experiment [1] (Table 4, MTS), the LC50 came out at 970 nM. Also, the CC50 was determined as 1650 nM in experiment [2] and 10100 nM in experiment [3].
In the case of `O=C(Nc1nc(-c2ccc(F)c(F)c2)nc2c1cnn2-c1ccccc1)c1ccc([N+](=O)[O-])s1` [Compound 5-44, N-(6-(3,4-difluorophenyl)-1-phenyl-1H-pyrazolo[3,4-d]pyrimidin-4-yl)-5-nitrothiophene-2-carboxamide], the LC50 in experiment [1] (Table 5, MTS) came out at 250 nM. For the same molecule, the CC50 in experiment [2] amounted to 4640 nM; in experiment [3], 1620 nM.
For the molecule `O=C(Nc1nc(-c2ccc(Cl)nc2)nc2c1cnn2C1CCCCC1)c1ccc([N+](=O)[O-])s1` [Compound 10-18, N-(6-(6-chloropyridin-3-yl)-1-cyclohexyl-1H-pyrazolo[3,4-d]pyrimidin-4-yl)-5-nitrothiophene-2-carboxamide], in experiment [1] (Table 10, MTS), the 50% lethal concentration (LC50) was found to be 680 nM. The CC50 in experiment [2] is 850 nM; in experiment [3] it was 950 nM.
`O=C(Nc1nc(-c2ccc(F)cc2)nc2c1cnn2-c1cccc(Cl)c1)c1ccc([N+](=O)[O-])s1` [Compound 6-35, N-(1-(3-chlorophenyl)-6-(4-fluorophenyl)-1H-pyrazolo[3,4-d]pyrimidin-4-yl)-5-nitrothiophene-2-carboxamide]: the LC50 in experiment [1] (Table 6, MTS) is 110 nM. Also, the CC50 in experiment [2] was 500 nM; in experiment [3], 520 nM.
On the same counts, the results for `CN(C)CCOc1nc(NC(=O)c2ccc([N+](=O)[O-])s2)c2cnn(-c3ccc(C(C)(C)C)cc3)c2n1` [Compound 6-58, N-(1-(4-(tert-butyl)phenyl)-6-(2-(dimethylamino)ethoxy)-1H-pyrazolo[3,4-d]pyrimidin-4-yl)-5-nitrothiophene-2-carboxamide] are 690 nM, 3970 nM and 4090 nM.
Regarding `Cn1ncc2c(NC(=O)c3ccc([N+](=O)[O-])s3)nc(-c3ccc(OC(F)(F)F)cc3)nc21` [Compound 1-5, N-(1-methyl-6-(4-(trifluoromethoxy)phenyl)-1H-pyrazolo[3,4-1]pyrimidin-4-yl)-5-nitrothiophene-2-carboxamide], the figures for the CC50 in experiment [2] and in experiment [3] were 2850 nM and 4320 nM, respectively.
On the same counts, the results for `Cn1ncc2c(NC(=O)c3ccc([N+](=O)[O-])s3)nc(-c3ccc(C(F)(F)F)cc3)nc21` [Compound 1-4, N-(1-methyl-6-(4-(trifluoromethyl)phenyl)-1H-pyrazolo[3,4-d]pyrimidin-4-yl)-5-nitrothiophene-2-carboxamide] are 3560 nM and 6190 nM.
In the case of `CC1(C)CC=C(c2nc(NC(=O)c3ccc([N+](=O)[O-])s3)c3cnn(-c4ccc(F)cc4)c3n2)CC1` [Compound 6-144, N-(6-(4,4-dimethylcyclohex-1-en-1-yl)-1-(4-fluorophenyl)-1H-pyrazolo[3,4-d]pyrimidin-4-yl)-5-nitrothiophene-2-carboxamide], the LC50 in experiment [1] (Table 6, MTS) was 550 nM.
Turning to `O=C(Nc1nc(-c2cccnc2)nc2c1cnn2C1CCCCC1)c1ccc([N+](=O)[O-])s1` [Compound 10-10, N-(1-cyclohexyl-6-(pyridin-3-yl)-1H-pyrazolo[3,4,d]pyrimidin-4-yl)-5-nitrothiophene-2-carboxamide], the LC50 in experiment [1] (Table 10, MTS) stood at 990 nM.
In the case of `COCCOC(=O)N1CCC(n2ncc3c(NC(=O)c4ccc([N+](=O)[O-])s4)nc(-c4ccc(Cl)cc4)nc32)CC1` [Compound 9-12, 2-methoxyethyl 4-(6-(4-chlorophenyl)4-(5-nitrothiophene-2-carboxamido)-1H-pyrazolo[3,4-d]pyrimidin-1-yl)piperidine-1-carboxylate], the LC50 in experiment [1] (Table 9, MTS) was 1860 nM.
Turning to `COc1ccc(-n2ncc3c(NC(=O)c4ccc([N+](=O)[O-])s4)nc(-c4ccc(Cl)nc4)nc32)cc1` [Compound 6-21, N-(6-(6-chloropyridin-3-yl)-1-(4-methoxyphenyl)-1H-pyrazolo[3,4,d]pyrimidin-4-yl)-5-nitrothiophene-2-carboxamide], in experiment [1] (Table 6, MTS), the LC50 came out at 120 nM.
Take `Cc1csc2c(-c3cccc(OC(F)(F)F)c3)nc(NC(=O)c3ccc([N+](=O)[O-])s3)nc12` [Compound 2-7, N-(7-methyl-(3-(trifluoromethoxy)phenyl)thieno[3,2-d]pyrimidin-2-yl)-5-nitrothiophene-2-carboxamide]: the median lethal concentration (LC50) in experiment [1] (Table 2, MTS) is 3430 nM.
`CC(C)(C)c1ccc(-n2ncc3c(NC(=O)c4ccc([N+](=O)[O-])s4)nc(-n4ccnc4)nc32)cc1` [Compound 6-74, N-(1-(4-(tert-butyl)phenyl)-6-(1H-imidazol-1-yl)-1H-pyrazolo[3,4-d]pyrimidin-4-yl)-5-nitrothiophene-2-carboxamide]: in experiment [1] (Table 6, MTS), the LC50 was determined as 330 nM.

(Values after patent publication US20240150356A1, “Pyrimidine amide compounds and use thereof” (ALPHALA CO., LTD., priority 2019, published 2024).)
